In PMC8805605, “Discovery of Dimeric Arylsulfonamides as Potent ADAM8 Inhibitors” (ACS Medicinal Chemistry Letters, 2021) one finds IC50 data, which are given here for four molecules.

Some results are limits rather than exact numbers.

Assay [1] has as its target T1, MMP-9 (Homo sapiens, UniProt P14780).
T1 construct: purchased Calbiochem (Merck-Millipore)
Kind of assay: MMP-9 fluorometric inhibition assay. Particulars: mean of three independent experiments in duplicate, read-out: In vitro inhibitory activity IC50 on MMP-9. The class given is biochemical. On the procedure:
(§1) The newly synthesized bivalent derivatives 1–3 were then tested in vitro on human recombinant ADAM8 in comparison with JG26 by a fluorometric assay. The inhibitory activity against a panel of MMPs and ADAM10/17 was determined as well to assess their selectivity profile. […]
(§2) VI. Biological Activity on Isolated Enzymes
(§3) MMP and ADAM10 inhibition assays.
(§4) Recombinant human MMP-14 catalytic domain was a kind gift of Prof. Gillian Murphy (Department of […]
(§5) Oncology, University of Cambridge, UK). Pro-MMP-1, pro-MMP-2, and pro-MMP-9, were purchased […]
(§6) from Calbiochem (Merck-Millipore). Pro-MMP-12 and ADAM10 were purchased from R&D Systems.
(§7) Proenzymes were activated immediately prior to use with p-aminophenylmercuric acetate (APMA 2 […]
(§8) mM for 1 h at 37°C for MMP-2 and MMP-1, 1 mM for 1 h at 37°C for MMP-9). Pro-MMP-12 was […]
(§9) auto activated by incubating in the fluorometric assay buffer (FAB: Tris 50 mM, pH = 7.5, NaCl 150 […]
(§10) mM, CaCl2 10 mM, Brij 35 0.05% and DMSO 1%) for 30 h at 37°C. For assay measurements, each […]
(§11) inhibitor stock solution (DMSO, 10 mM) was further diluted in FAB at seven different concentrations.
(§12) Activated enzyme (final concentration 0.56 nM for MMP-2, 1.3 nM for MMP-9, 1.0 nM for MMP- […]
(§13) 14cd, 2.0 nM for MMP-1, 2.3 nM for MMP-12 and 20 nM for ADAM10) and inhibitor solutions were […]
(§14) incubated in the assay buffer for 3 h at 25 °C. ADAM10 was incubated for 1 h at 37°C in a different […]
(§15) buffer at pH 9 (Tris 25 mM, ZnCl2 25 µM, Brij-35 0.005 %). After the addition of 200 µM solution of […]
(§16) the fluorogenic substrate Mca-Lys-Pro-Leu-Gly-Leu-Dap(Dnp)-Ala-Arg-NH2 (Bachem) for all the […]
(§17) enzymes in DMSO (final concentration 2 µM for all enzymes, 10 µM for ADAM10), the hydrolysis […]
(§18) was monitored every 10 sec. for 15 min. recording the increase in fluorescence (λ ex = 325 nm, λ em = […]
(§19) 400 nm) using a Molecular Devices SpectraMax Gemini XPS plate reader. The assays were performed […]
(§20) in triplicate in a total volume of 200 μL per well in 96-well microtitre plates (Corning, black, NBS).
(§21) Control wells lack inhibitor. The MMP inhibition activity was expressed in relative fluorescent units […]
(RFU). Percent of inhibition was calculated from control reactions without the inhibitor. IC50 was determined using the formula: v i/v o = 1/(1 + [I]/ IC50), where v i is the initial velocity of substrate cleavage in the presence of the inhibitor at concentration [I] and v o is the initial velocity in the absence of the inhibitor. Results were analyzed using SoftMax Pro software (version 5.4.3, Molecular Devices, Sunnyvale, CA) and Prism Software version 5.0 (GraphPad Software, Inc., La Jolla, CA, USA). […]

Assay [2] concerns the target T2, MMP-1 (Homo sapiens, UniProt P03956).
T2 construct: purchased Calbiochem (Merck-Millipore)
T2 sequence (P03956 100-469): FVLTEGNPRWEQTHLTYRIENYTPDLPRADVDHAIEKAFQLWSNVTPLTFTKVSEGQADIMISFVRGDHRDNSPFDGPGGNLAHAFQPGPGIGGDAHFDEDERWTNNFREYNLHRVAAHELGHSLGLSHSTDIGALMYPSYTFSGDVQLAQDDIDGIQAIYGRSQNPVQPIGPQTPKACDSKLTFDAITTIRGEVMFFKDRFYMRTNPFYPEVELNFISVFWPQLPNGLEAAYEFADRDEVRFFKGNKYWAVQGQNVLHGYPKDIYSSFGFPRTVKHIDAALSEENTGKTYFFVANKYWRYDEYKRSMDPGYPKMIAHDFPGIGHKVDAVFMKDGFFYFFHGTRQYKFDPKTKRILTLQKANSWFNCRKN
Kind of assay: MMP-1 fluorometric inhibition assay. The format is biochemical. Particulars: mean of three independent experiments in duplicate, read-out: In vitro inhibitory activity IC50 on MMP-1. On the procedure:
as §1, §2, §3, §4, §5, §6, §7, §8, §9, §10, §11, §12, §13, §14, §15, §16, §17, §18, §19, §20, §21
(RFU). Percent of inhibition was calculated from control reactions without the inhibitor. IC50 was determined using the formula: v i/v o = 1/(1 + [I]/ IC50), where v i is the initial velocity of substrate cleavage in the presence of the inhibitor at concentration [I] and v o is the initial velocity in the absence of the inhibitor. Results were analyzed using SoftMax Pro software (version 5.4.3, Molecular Devices, Sunnyvale, CA) and Prism Software version 5.0 (GraphPad Software, Inc., La Jolla, CA, USA).
ADAM8 and ADAM17 inhibition assays […]

By IC50 is commonly meant the midpoint of a concentration-inhibition curve.

T1 sequence (P14780 107-707 limits assumed, species assumed): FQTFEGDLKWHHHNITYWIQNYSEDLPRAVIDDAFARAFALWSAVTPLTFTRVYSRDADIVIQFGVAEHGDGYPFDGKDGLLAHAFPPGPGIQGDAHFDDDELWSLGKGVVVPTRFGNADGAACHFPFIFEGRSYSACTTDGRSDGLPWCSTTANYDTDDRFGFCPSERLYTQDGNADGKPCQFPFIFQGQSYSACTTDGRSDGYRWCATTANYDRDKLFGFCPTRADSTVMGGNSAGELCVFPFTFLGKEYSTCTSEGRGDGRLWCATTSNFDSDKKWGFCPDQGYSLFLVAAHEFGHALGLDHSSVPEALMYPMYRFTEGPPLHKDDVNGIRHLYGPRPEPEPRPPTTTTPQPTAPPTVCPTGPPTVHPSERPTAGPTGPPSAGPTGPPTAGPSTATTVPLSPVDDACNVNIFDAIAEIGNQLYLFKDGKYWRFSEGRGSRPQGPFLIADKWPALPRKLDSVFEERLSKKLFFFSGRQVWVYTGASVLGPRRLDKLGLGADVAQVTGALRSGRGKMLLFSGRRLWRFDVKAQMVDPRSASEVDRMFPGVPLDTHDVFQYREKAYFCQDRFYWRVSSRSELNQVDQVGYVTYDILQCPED

For `O=C(CCCNC(=O)c1cccc(C(=O)NCCCC(=O)NCCC[C@@H](NS(=O)(=O)c2ccc(OCc3cc(Br)cc(Br)c3)cc2)C(=O)NO)c1)NCCC[C@@H](NS(=O)(=O)c1ccc(OCc2cc(Br)cc(Br)c2)cc1)C(=O)NO` [Compound 1], the IC50 in assay [1] is 3.32 µM; in assay [2] it was 415 µM.
Take `O=C(NCCC[C@@H](NS(=O)(=O)c1ccc(OCc2cc(Br)cc(Br)c2)cc1)C(=O)NO)c1cccc(C(=O)NCCC[C@@H](NS(=O)(=O)c2ccc(OCc3cc(Br)cc(Br)c3)cc2)C(=O)NO)c1` [Compound 2]: the half-maximal inhibitory concentration (IC50) is 8.8 µM in assay [1] and greater than 200 µM in assay [2].
For `O=C(NCCC[C@@H](NS(=O)(=O)c1ccc(OCc2cc(Br)cc(Br)c2)cc1)C(=O)NO)NCCC[C@@H](NS(=O)(=O)c1ccc(OCc2cc(Br)cc(Br)c2)cc1)C(=O)NO` [Compound 3] the same measures were 13.5 µM and 348 µM.
The like results for `NC(=O)NCCC[C@@H](NS(=O)(=O)c1ccc(OCc2cc(Br)cc(Br)c2)cc1)C(=O)NO` [JG26, reference compound] were, in that order, 1.63 µM and greater than 500 µM.
